This note sets out measurements from the NIST ThermoML archive (doi:10.1016/j.jct.2010.08.002).

Numbers after ± are expanded uncertainties.

As usually defined, the surface tension liquid-gas is the force per length acting along the surface. The mass density is the mass of a sample divided by its volume.

The conditions of this series: for mass density: Liquid.

For the molecule `COP(=O)([O-])OC.Cn1cc[n+](C)c1` [1,3-dimethylimidazolium dimethylphosphate], the surface tension liquid-gas reads like this: (293.15 K) 47.42 ± 1.6 mN/m; (298.15 K) 47.09 ± 1.6 mN/m; (303.15 K) 47.11 ± 1.6 mN/m; (308.15 K) 46.28 ± 1.6 mN/m; (313.15 K) 45.11 ± 1.6 mN/m; (318.15 K) 44.44 ± 1.6 mN/m. For the same molecule, the surface tension liquid-gas amounted to 43.01 ± 1.5 mN/m (323.15 K), 42.58 ± 1.5 mN/m (328.15 K), 41.88 ± 1.5 mN/m (333.15 K) and 41.33 ± 1.4 mN/m (338.15 K). The mass density reads like this: (293.15 K) 1244 ± 5.7 kg/m3; (298.15 K) 1242 ± 5.7 kg/m3; (303.15 K) 1238.7 ± 5.6 kg/m3; (308.15 K) 1234.9 ± 5.5 kg/m3; (313.15 K) 1229.7 ± 5.5 kg/m3; (318.15 K) 1226.8 ± 5.4 kg/m3. In addition, the mass density (323.15 K) is given as 1223.9 ± 5.4 kg/m3, the mass density (328.15 K) stood at 1218.5 ± 5.3 kg/m3, the mass density (333.15 K) amounted to 1214.8 ± 5.2 kg/m3 and the mass density (338.15 K) came to 1210.4 ± 5.1 kg/m3.
Take `CCOP(=O)([O-])OCC.CCn1cc[n+](C)c1` [1-ethyl-3-methylimidazolium diethyl phosphate]: the surface tension liquid-gas is recorded as 36.1 ± 1.3 mN/m (293.15 K); 35.88 ± 1.3 mN/m (298.15 K); 35.43 ± 1.3 mN/m (303.15 K); 35.3 ± 1.3 mN/m (308.15 K); 35.07 ± 1.3 mN/m (313.15 K); 34.61 ± 1.2 mN/m (318.15 K). Also, the surface tension liquid-gas is on record as 34.55 ± 1.2 mN/m (323.15 K), 34.21 ± 1.2 mN/m (328.15 K), 33.88 ± 1.2 mN/m (333.15 K) and 33.75 ± 1.2 mN/m (338.15 K). Besides, the mass density came to 1141.3 ± 3.9 kg/m3 (293.15 K); 1140 ± 3.9 kg/m3 (298.15 K); 1132.1 ± 3.8 kg/m3 (303.15 K); 1129.7 ± 3.7 kg/m3 (308.15 K); 1125.1 ± 3.7 kg/m3 (313.15 K); 1120.4 ± 3.6 kg/m3 (318.15 K). In addition, the mass density was determined as 1118 ± 3.5 kg/m3 (323.15 K), 1112.9 ± 3.5 kg/m3 (328.15 K), 1111.1 ± 3.4 kg/m3 (333.15 K) and 1108 ± 3 kg/m3 (338.15 K).
